From publication PMC10387993, “New pyrimidine-N-β-D-glucosides: synthesis, biological evaluation, and molecular docking investigations” (Turkish Journal of Chemistry, 2023)
Converted amounts (≈) assume the structure as drawn. Like-named read-outs stand apart in the source and are kept apart here.

What was measured:
Type in all cases: cell-based
[1] = LDH cytotoxic activity assay, HeLa; settings: human, HeLa cells
In short: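 Cells grown in DMEM or RPMI 1640 with 10% FBS were seeded at about 5 × 10^3 per well in triplicate. They were exposed to 25, 50, 75 and 100 μg/mL compound for 24 h at 37 °C, 5% CO2, and LDH release was measured by absorbance at 492–630 nm.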

MCF7 = assay: cells; settings: Homo sapiens; for LC50 (concentration causing 50% net cell loss relative to time zero): MCF7, read-out: LC50; for GI50 / IC50 / IC (total growth inhibition): MCF7, MTT; for IC50: read-out: IC50; for IC (total growth inhibition): read-out: TGI
In short: (§1)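 Seed ~1 × 10^4 cells/well; final 200 μL. Add MTT in phenol-red-free RPMI 1640, 4 h. Solubilise formazan in DMSO + Sorenson's buffer, 30 min RT. Read 560/690 nm. ≥3 repeats.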

C6 (Rat brain glioma) = assay: cells; settings: Rattus norvegicus; for LC50 (concentration giving 50% net cell loss relative to time zero): read-out: LC50; for GI50 / IC50 / IC (total growth inhibition): C6, MTT; for IC50: read-out: IC50; for IC (total growth inhibition): read-out: TGI
In short: as §1

A549 = assay: cells; settings: Homo sapiens; for LC50 (concentration causing 50% net cell loss): A549, read-out: LC50; for GI50 / IC50 / IC (total growth inhibition): A549, MTT; for IC50: read-out: IC50; for IC (total growth inhibition): read-out: TGI
In short: as §1

HeLa = assay: cells; settings: Homo sapiens; for GI50 / IC50 / IC (total growth inhibition): MTT; for IC50: read-out: IC50; for IC (total growth inhibition): read-out: TGI; for LC50 (concentration causing 50% net cell loss): read-out: LC50
In short: as §1

HT29 = assay: cells; settings: Homo sapiens; for LC50 (concentration giving 50% net cell loss relative to time zero): HT-29, read-out: LC50; for GI50 / IC50 / IC (total growth inhibition): HT-29, HT29, MTT; for IC50: read-out: IC50; for IC (total growth inhibition): read-out: TGI
In short: as §1

Hep3B = assay: cells; settings: Homo sapiens; for GI50 / IC50 / IC (total growth inhibition): MTT; for IC50: read-out: IC50; for IC (total growth inhibition): read-out: TGI; for LC50 (concentration causing 50% net cell loss relative to time zero): read-out: LC50
In short: as §1

[2] = test system: E. faecalis VRE ATCC 19433; assay: Microdilution MIC assay; settings: Enterococcus faecalis; E. faecalis VRE ATCC 19433, 24 h at 35 °C
In short: (§2)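 Visually scored microwell dilution test (35 °C, 24 h), endpoint no turbidity.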

S. mutans ATCC 35668 = assay: Microdilution MIC assay; settings: S. mutans ATCC 35668, 24 h at 35 °C
In short: as §2

S. gordonii NCTC 7870 = assay: Microdilution MIC assay; settings: Streptococcus gordonii, NCTC7870; S. gordonii NCTC 7870, 24 h at 35 °C
In short: as §2

E. coli ATCC 25922 = assay: Microdilution MIC assay; settings: Escherichia coli, ATCC25922; E. coli ATCC 25922, 24 h at 35 °C
In short: as §2

E. faecalis ATCC 29212 = assay: Microdilution MIC assay; settings: E. faecalis ATCC 29212, 24 h at 35 °C
In short: as §2

[3] = test system: P. aeruginosa AGME ATCC 27853; assay: Microdilution MIC assay; settings: Pseudomonas aeruginosa, ATCC27853; P. aeruginosa AGME ATCC 27853, 24 h at 35 °C
In short: as §2

[4] = test system: S. aureus MRSA ATCC 46300; assay: Microdilution MIC assay; settings: Staphylococcus aureus; S. aureus MRSA ATCC 46300, 24 h at 35 °C; read-out: MIC
In short: as §2

E. coli ESBL ATCC 35218 = assay: Microdilution MIC assay; settings: Escherichia coli, ATCC35218; E. coli ESBL ATCC 35218, 24 h at 35 °C
In short: as §2

[5] = test system: A. actinomycetemcomitans ATCC 33384; assay: Microdilution MIC assay; settings: Aggregatibacter actinomycetemcomitans, ATCC33384; A. actinomycetemcomitans ATCC 33384, 24 h at 35 °C
In short: as §2

S. aureus ATCC 25923 = assay: Microdilution MIC assay; settings: Staphylococcus aureus, ATCC25923, 24 h, S. aureus ATCC 25923, 24 h at 35 °C; read-out: MIC
In short: as §2

[6] = Streptococcus mutans, ATCC35668, 24 h, read-out: MIC
[7] = Enterococcus faecalis, ATCC29212, 24 h, read-out: MIC

Row | SMILES | cytotoxicity at 24 h, 25 μg/mL [1] | cytotoxicity at 24 h, 50 μg/mL [1] | cytotoxicity at 24 h, 75 μg/mL [1] | cytotoxicity at 24 h, 100 μg/mL [1] | LC50 (concentration causing 50% net cell loss relative to time zero) (MCF7) | GI50 (MCF7) | IC50 (MCF7) | IC (total growth inhibition) (MCF7) | LC50 (concentration giving 50% net cell loss relative to time zero) (C6 (Rat brain glioma)) | GI50 (C6 (Rat brain glioma)) | IC50 (C6 (Rat brain glioma)) | IC (total growth inhibition) (C6 (Rat brain glioma)) | LC50 (concentration causing 50% net cell loss) (A549) | GI50 (A549) | IC50 (A549) | IC (total growth inhibition) (A549) | GI50 (HeLa) | IC50 (HeLa) | IC (total growth inhibition) (HeLa) | LC50 (concentration causing 50% net cell loss) (HeLa) | other results
1 | Cc1ccc(-c2cc(-c3ccccn3)nc(N[C@@H]3O[C@H](CO)[C@@H](O)[C@H](O)[C@H]3O)n2)cc1 [Compound 7, N-[4-(4-methylphenyl)-6-pyridin-2-ylpyrimidin-2-yl]-β-D-glucopyranosylamine] | 11.9% | 25.1% | 38.4% | 50.7% | > 500 µg/mL | 2.04 µg/mL (≈ 4.81 µM) | > 500 µg/mL | > 500 µg/mL | 88.3 µg/mL (≈ 208 µM) | 8.15 µg/mL (≈ 19.2 µM) | 29.3 µg/mL (≈ 69 µM) | 21.5 µg/mL | > 500 µg/mL | 125 µg/mL (≈ 295 µM) | > 500 µg/mL | > 500 µg/mL | 7.17 µg/mL (≈ 16.9 µM) | 31.9 µg/mL (≈ 75 µM) | 21.6 µg/mL | 120 µg/mL (≈ 284 µM) | LC50 (concentration giving 50% net cell loss relative to time zero) (HT29): > 500 µg/mL; GI50 (HT29): 2.5 µg/mL (≈ 5.89 µM); IC50 (HT29): 29.9 µg/mL (≈ 70.5 µM); IC (total growth inhibition) (HT29): 49.2 µg/mL; GI50 (Hep3B): 4.26 µg/mL (≈ 10 µM); IC50 (Hep3B): 183 µg/mL (≈ 430 µM); IC (total growth inhibition) (Hep3B): 194 µg/mL; LC50 (concentration causing 50% net cell loss relative to time zero) (Hep3B): > 500 µg/mL; MIC [2]: 1000 µg/mL (≈ 2360 µM); MIC (S. mutans ATCC 35668): 125 µg/mL (≈ 294 µM); MIC (S. mutans ATCC 35668; [6]): 62.5 to 125 µg/mL (≈ 147 to 294 µM); MIC (S. gordonii NCTC 7870): 500 µg/mL (≈ 1180 µM); MIC (E. coli ATCC 25922): > 1000 µg/mL; MIC (E. faecalis ATCC 29212; [7]): 250 µg/mL (≈ 589 µM); MIC [3]: > 1000 µg/mL; MIC [4]: 250 µg/mL (≈ 589 µM); MIC (E. coli ESBL ATCC 35218): > 1000 µg/mL; MIC [5]: 250 µg/mL (≈ 589 µM); MIC (S. aureus ATCC 25923): 250 µg/mL (≈ 589 µM)
2 | CC(=O)OC[C@H]1O[C@@H](Nc2nc(-c3cccc(C)c3)cc(-c3ccccn3)n2)[C@H](OC(C)=O)[C@@H](OC(C)=O)[C@@H]1OC(C)=O [Compound 13, 2,3,4,6-tetra-O-acetyl-N-[4-(3-methylphenyl)-6-pyridin-2-ylpyrimidin-2-yl]-β-D-glucopyranosylamine] | 18.1% | 28% | 42.8% | 50.9% | > 500 µg/mL | 1.84 µg/mL (≈ 3.1 µM) | 297 µg/mL (≈ 500 µM) | 397 µg/mL | 33.9 µg/mL (≈ 57.2 µM) | 1.97 µg/mL (≈ 3.32 µM) | 7.55 µg/mL (≈ 12.7 µM) | 4.7 µg/mL | > 500 µg/mL | > 500 µg/mL | > 500 µg/mL | > 500 µg/mL | 4.48 µg/mL (≈ 7.56 µM) | 60.4 µg/mL (≈ 102 µM) | 17.3 µg/mL | 224 µg/mL (≈ 378 µM) | LC50 (concentration giving 50% net cell loss relative to time zero) (HT29): > 500 µg/mL; GI50 (HT29): 2.94 µg/mL (≈ 4.96 µM); IC50 (HT29): > 500 µg/mL; IC (total growth inhibition) (HT29): > 500 µg/mL; GI50 (Hep3B): 2.56 µg/mL (≈ 4.32 µM); IC50 (Hep3B): > 500 µg/mL; IC (total growth inhibition) (Hep3B): > 500 µg/mL; LC50 (concentration causing 50% net cell loss relative to time zero) (Hep3B): > 500 µg/mL; MIC [2]: 1000 µg/mL (≈ 1690 µM); MIC (S. mutans ATCC 35668): 125 µg/mL (≈ 211 µM); MIC (S. mutans ATCC 35668; [6]): 62.5 to 125 µg/mL (≈ 105 to 211 µM); MIC (S. gordonii NCTC 7870): > 1000 µg/mL; MIC (E. coli ATCC 25922): > 1000 µg/mL; MIC (E. faecalis ATCC 29212): 31.25 µg/mL (≈ 52.7 µM); MIC (E. faecalis ATCC 29212; [7]): 31.2 to 125 µg/mL (≈ 52.7 to 211 µM); MIC [3]: > 1000 µg/mL; MIC [4]: 500 µg/mL (≈ 844 µM); MIC (E. coli ESBL ATCC 35218): > 1000 µg/mL; MIC [5]: > 1000 µg/mL; MIC (S. aureus ATCC 25923): 500 µg/mL (≈ 844 µM)
3 | Cc1cccc(-c2cc(-c3ccccn3)nc(N[C@@H]3O[C@H](CO)[C@@H](O)[C@H](O)[C@H]3O)n2)c1 [Compound 4, N-[4-(3-methylphenyl)-6-pyridin-2-ylpyrimidin-2-yl]-β-D-glucopyranosylamine] | 26.9% | 64.3% | 77.1% | 97.2% | > 500 µg/mL | 3.44 µg/mL (≈ 8.1 µM) | > 500 µg/mL | > 500 µg/mL | 77.4 µg/mL (≈ 182 µM) | 8.13 µg/mL (≈ 19.2 µM) | 27.8 µg/mL (≈ 65.4 µM) | 20.5 µg/mL | > 500 µg/mL | 19.4 µg/mL (≈ 45.8 µM) | > 500 µg/mL | > 500 µg/mL | 21.9 µg/mL (≈ 51.6 µM) | 52.2 µg/mL (≈ 123 µM) | 46 µg/mL | 116 µg/mL (≈ 272 µM) | LC50 (concentration giving 50% net cell loss relative to time zero) (HT29): > 500 µg/mL; GI50 (HT29): 4.63 µg/mL (≈ 10.9 µM); IC50 (HT29): 26.7 µg/mL (≈ 62.9 µM); IC (total growth inhibition) (HT29): 31.9 µg/mL; GI50 (Hep3B): 4.4 µg/mL (≈ 10.4 µM); IC50 (Hep3B): 65.5 µg/mL (≈ 154 µM); IC (total growth inhibition) (Hep3B): 67.8 µg/mL; LC50 (concentration causing 50% net cell loss relative to time zero) (Hep3B): > 500 µg/mL; MIC [2]: > 1000 µg/mL; MIC (S. mutans ATCC 35668): 125 µg/mL (≈ 294 µM); MIC (S. mutans ATCC 35668; [6]): 62.5 to 125 µg/mL (≈ 147 to 294 µM); MIC (S. gordonii NCTC 7870): 250 µg/mL (≈ 589 µM); MIC (E. coli ATCC 25922): > 1000 µg/mL; MIC (E. faecalis ATCC 29212; [7]): 250 µg/mL (≈ 589 µM); MIC [3]: > 1000 µg/mL; MIC [4]: 500 µg/mL (≈ 1180 µM); MIC (E. coli ESBL ATCC 35218): > 1000 µg/mL; MIC [5]: 250 µg/mL (≈ 589 µM); MIC (S. aureus ATCC 25923): 250 µg/mL (≈ 589 µM)
